Measurements reported in patent US9085561B2, “Cyclic urea- or lactam-substituted quinoxaline-type piperidines as ORL-1 modulators” (priority 2012, dated 2015).

Assays:
[1] = biological target: human kappa opioid receptor (Homo sapiens, UniProt P41145); test: In vitro kappa-opioid receptor binding assay ([3H]-U69,593 displacement)
human CYP2D6 = human CYP2D6 (Homo sapiens, UniProt P10635); test: Cytochrome P450 2D6 inhibition (dextromethorphan O-demethylation, pooled human hepatic microsome)
[2] = biological target: human opioid receptor-like (ORL-1) (Homo sapiens, UniProt P41146); test: In vitro ORL-1 receptor [35S]GTPγS functional assay; type: biochemical
Chain of human opioid receptor-like (ORL-1) (P41146 whole entry): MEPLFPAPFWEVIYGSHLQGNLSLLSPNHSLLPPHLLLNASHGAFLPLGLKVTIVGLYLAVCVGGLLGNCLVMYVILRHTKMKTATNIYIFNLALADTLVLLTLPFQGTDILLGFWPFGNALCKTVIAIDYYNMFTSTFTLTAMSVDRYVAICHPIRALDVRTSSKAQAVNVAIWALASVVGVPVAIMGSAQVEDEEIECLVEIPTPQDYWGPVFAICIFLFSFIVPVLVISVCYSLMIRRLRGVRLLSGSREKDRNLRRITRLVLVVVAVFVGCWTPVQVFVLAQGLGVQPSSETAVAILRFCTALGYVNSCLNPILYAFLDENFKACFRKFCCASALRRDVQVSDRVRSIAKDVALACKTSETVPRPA

Chain of human CYP2D6 (P10635 whole entry): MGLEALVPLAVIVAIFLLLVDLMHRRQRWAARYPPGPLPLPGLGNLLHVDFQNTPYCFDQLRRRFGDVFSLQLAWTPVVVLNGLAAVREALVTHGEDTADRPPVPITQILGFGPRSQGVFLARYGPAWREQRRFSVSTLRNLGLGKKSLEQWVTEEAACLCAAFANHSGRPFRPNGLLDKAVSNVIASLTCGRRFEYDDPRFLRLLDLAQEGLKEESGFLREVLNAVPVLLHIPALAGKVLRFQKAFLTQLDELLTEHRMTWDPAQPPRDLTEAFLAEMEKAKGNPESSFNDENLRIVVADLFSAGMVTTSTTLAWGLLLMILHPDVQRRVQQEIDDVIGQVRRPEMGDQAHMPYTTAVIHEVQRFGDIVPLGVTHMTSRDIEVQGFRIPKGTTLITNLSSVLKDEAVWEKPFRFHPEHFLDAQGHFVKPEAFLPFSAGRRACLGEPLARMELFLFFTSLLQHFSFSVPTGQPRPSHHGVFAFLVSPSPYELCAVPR
Chain of human kappa opioid receptor (P41145 whole entry): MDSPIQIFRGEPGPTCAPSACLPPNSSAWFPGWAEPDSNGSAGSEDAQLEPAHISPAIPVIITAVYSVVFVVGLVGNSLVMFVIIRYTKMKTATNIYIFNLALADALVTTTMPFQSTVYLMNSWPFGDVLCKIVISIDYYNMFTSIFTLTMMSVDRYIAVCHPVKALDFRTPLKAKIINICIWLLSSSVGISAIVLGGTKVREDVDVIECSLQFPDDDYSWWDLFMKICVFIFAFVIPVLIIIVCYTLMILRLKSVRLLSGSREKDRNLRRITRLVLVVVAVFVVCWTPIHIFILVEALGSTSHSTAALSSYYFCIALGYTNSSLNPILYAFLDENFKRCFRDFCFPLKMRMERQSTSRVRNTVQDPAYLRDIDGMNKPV

Row | SMILES | Ki [1] [µM] | IC50 (human CYP2D6) [µM] | EC50 [2] [µM]
1 | O=c1cnn(-c2nc3ccccc3n([C@H]3C[C@H]4COC[C@@H](C3)N4[C@@H]3C[C@@H]4CCCC[C@@H](C4)C3)c2=O)c(=O)[nH]1 [Compound P9b, 2-(4-((1R,5S,7 S)-9-((1R,6S,8s)-bicyclo[4.3.1]decan-8-yl)-3-oxa-9-azabicyclo[3.3.1]nonan-7-yl)-3-oxo-3,4-dihydroquinoxalin-2-yl)-1,2,4-triazine-3,5(2H,4H)-dione] | 13.1 | > 20 | 0.104 ± 0.043
2 | O=C(O)Cn1cccc(-c2nc3ccccc3n([C@H]3C[C@H]4CC[C@@H](C3)N4[C@H]3C[C@@H]4CCC[C@@H](C4)C3)c2=O)c1=O [Q13a(iii), 2-(3-(4-((1R,3R,5S)-8-((1R,3r,5S)-bicyclo[3.3.1]nonan-3-yl)-8-azabicyclo[3.2.1]octan-3-yl)-3-oxo-3,4-dihydroquinoxalin-2-yl)-2-oxopyridin-1(2H)-yl)acetic acid] | – | > 20 | 0.255 ± 0.042
3 | O=c1[nH]cc(F)cc1-c1nc2ccccc2n([C@H]2C[C@H]3CCC[C@@H](C2)N3[C@H]2C[C@@H]3CCC[C@@H](C3)C2)c1=O [R16a(i), 1-((1R,1′R,3r,3′R,5S,5′S)-[3,9′-bi(9′-azabicyclo[3.3.1]nonan)]-3′-yl)-3-(5-fluoro-2-oxo-1,2-dihydropyridin-3-yl)quinoxalin-2(1H)-one] | – | > 20 | 1.61 ± 0.441
